{"source": "patent US11739051B2", "about": "(ALEXION PHARMA INTERNATIONAL OPERATIONS UNLIMITED COMPANY, priority 2018, dated 2023)", "key": {"WD patients": {"test_system": "WD patients", "settings": "once daily dosing in WD patients; cited from earlier work"}, "[1]": {"test": "Crystallinity by X-ray powder diffraction (XRPD)", "format": "physicochemical", "description": "Crystallinity was analyzed by X-ray powder diffraction (XRPD) using a Cu-anode (45 kV/40 mA), a Kα-1 monochromator and silicon-based position-sensitive 1D detector (Malvern Panalytical, X'Celerator™). The 2-theta range was 2-35° using a scan speed of 0.02°/s and a step size of 0.017°. Slow spinning sample holders were used. […] Each sample was smeared out using a Teflon bar, producing a flat powdered surface on zero background wafers of silicon (Si). The measurements were performed using a programmable incident divergence slit.\nThe crystallinity was evaluated using Panalytical HighScore Plus™ software (The HighScore suite; T. Degen, M. Sadki, E. Bron, U. König, G. Nénert; Powder Diffraction, Volume 29, Supplement S2, December 2014, pp S13-S18). This method is based on the following steps: 1) Calculation of the net area of the signals from the crystalline part of the sample. This area is defined as “AREAcryst.” 2) Calculation of the net total area, that is, area from the amorphous “humps” plus the net peak area from step 1. This area is defined as “AREAtotal.” In the calculation of above areas, an automatic correction of the background is made by using data collected for an empty sample holder. 3) The percent crystallinity of the sample is calculated as: (AREAcryst/AREAtotal)*100.\nXRPD crystallinity results for each batch are reported Table 1."}, "[2]": {"test": "Specific surface area (SSA) by BET", "format": "physicochemical", "settings": "N2 adsorption", "description": "As used herein, the ten “SSA (m^2/g)” refers to specific surface area (SSA) measured in square meters (m^2) per gram (g). SSA was measured by BET according to the method described in Example 4.\nSpecific Surface Area (SSA) was analyzed by BET on a surface area analyzer (Gemini 2375™ from Micromeritics Instrument Corp.). […] Each sample was filled into a glass tube and “degassed” at 30° C. for 1 h under continuous N2 (g) flow in order to remove all loosely bound molecules on the external surface and from potential channels in the material. Simultaneously, the saturation pressure for the liquid nitrogen used was determined. After weighing the degassed samples, the degassed samples were inserted into the measuring position at −196° C. (boiling point for liquid nitrogen), evacuated and then exposed to a range of partial pressures basically covering the whole range from almost zero to close to 1 under adsorption mode. The lower pressures were used for SSA determination. Higher pressures were used for potential micro pore determination. In order to ascribe the right amount of nitrogen to the substances, the free volume in the tubes was measured with helium gas prior to nitrogen adsorption. The appropriate thickness values for the adsorbed layer (above the point where no absorption took place in micro pores anymore) was determined from a t-plot and subsequently used to correct the calculation by separating the adsorbed nitrogen molecules into either absorbed into potential pore like structures (the “micro pore volume”) or adsorbed onto actual external surface."}, "[3]": {"test": "Particle size distribution (PSD) by LALLS", "format": "physicochemical", "settings": "for Dx (10)/μm: 10th percentile of particle size, paraffin oil dispersion; for Dx (50)/μm: 50th percentile of particle size; for Dx (90)/μm: 90th percentile of particle size; for >100 μm (%): percentage of particles greater than 100 μm; for <2 μm (%): percentage of particles less than 2 μm", "text": "As used herein, the term “Dx(10)/μm” refers to the 10th percentile of particle size (D10) measured in micrometers (μm). As used herein, the terms “Dx(50)/μm” or “median particle size” refer to the 50th percentile particle size (D50). As used herein, the term “Dx(90)/μm” refers to the 90th percentile of particle size (D90).\nAs used herein, the term “<2 μm (%)” refers to the percentage (%) of particles that are less than 2 μm. As used herein, the term “>100 μm (%)” refers to the percentage (%) of particles that are greater than 100 μm. As used herein, the percentage of particles refers to the percentage based on the population, or number, of particles.\nThe sample dispersion medium was paraffin oil. […] This was repeated until a stable reading was obtained.\nThe PSD measurements were done using the following settings: background measurement time, 20 seconds(s); sample measurement time, 20 s; dispersant refractive index, 1.45; particle refractive index, N/A (Fraunhofer), absorption, N/A (Fraunhofer); stirrer speed, 2500 rpm; analysis model: general purpose."}, "[4]": {"test": "Stability of crystalline particles after forced degradation at 40° C. and 75% relative humidity (HPLC impurities)", "format": "physicochemical", "description": "Stability analysis was performed on crystalline particles after forced degradation at 40° C. and 75% relative humidity over 3 days."}, "[5]": {"settings": "Day 3, 40° C. / 75% RH, listed as B-2"}, "[6]": {"settings": "Day 3, 40° C. / 75% RH, listed as B-3"}, "[7]": {"settings": "Day 3, 40° C. / 75% RH, listed as B-4"}}}
{"substance": "Bis-choline tetrathiomolybdate [BC-TTM]", "values": [{"measurement": "Cu control and improvement of hepatic function", "setting": "WD patients", "value": "demonstrated to provide Cu control and improvement of hepatic function"}]}
{"substance": "bis-choline tetrathiomolybdate [Batch B-2]", "values": [{"measurement": "Estimated Crystallinity (%)", "setting": "[1]; AREAcryst/AREAtotal*100, listed as B-2", "value": 93, "unit": "%"}, {"measurement": "SSA (m^2/g)", "setting": "[2]; listed as B-2", "value": 0.65, "unit": "m^2/g"}, {"measurement": "Dx (10)/μm", "setting": "[3]; listed as B-2", "value": 5.4, "unit": "μm"}, {"measurement": "Dx (50)/μm", "setting": "[3]; listed as B-2", "value": 20.5, "unit": "μm"}, {"measurement": "Dx (90)/μm", "setting": "[3]; listed as B-2", "value": 59.7, "unit": "μm"}, {"measurement": ">100 μm (%)", "setting": "[3]; listed as B-2", "value": 0.1, "unit": "%"}, {"measurement": "<2 μm (%)", "setting": "[3]; listed as B-2", "value": 4.3, "unit": "%"}, {"measurement": "Mo2S6O2 dimer (area %)", "setting": "[4]; Day 1, 40° C. / 75% RH, listed as B-2", "value": 0.07, "unit": "area %"}, {"measurement": "Mo2S6O2 dimer (area %)", "setting": "[4]; Day 2, 40° C. / 75% RH, listed as B-2", "value": 0.13, "unit": "area %"}, {"measurement": "Mo2S6O2 dimer (area %)", "setting": "[4]; [5]", "value": 0.19, "unit": "area %"}, {"measurement": "TM2 (area %)", "setting": "[4]; [5]", "value": 0.13, "unit": "area %"}, {"measurement": "TM3 (area %)", "setting": "[4]; [5]", "value": 0.54, "unit": "area %"}, {"measurement": "Total impurities (area %)", "setting": "[4]; [5]", "value": 0.97, "unit": "area %"}, {"measurement": "TM2 (area %)", "setting": "[4]; Initial, listed as B-2", "value": 0.01, "unit": "area %"}, {"measurement": "TM3 (area %)", "setting": "[4]; Initial, listed as B-2", "value": 0.52, "unit": "area %"}, {"measurement": "Total impurities (area %)", "setting": "[4]; Initial, listed as B-2", "value": 0.56, "unit": "area %"}]}
{"substance": "bis-choline tetrathiomolybdate [Batch B-3]", "values": [{"measurement": "Estimated Crystallinity (%)", "setting": "[1]; AREAcryst/AREAtotal*100, listed as B-3", "value": 95, "unit": "%"}, {"measurement": "SSA (m^2/g)", "setting": "[2]; listed as B-3", "value": 0.38, "unit": "m^2/g"}, {"measurement": "Dx (10)/μm", "setting": "[3]; listed as B-3", "value": 10.5, "unit": "μm"}, {"measurement": "Dx (50)/μm", "setting": "[3]; listed as B-3", "value": 30.0, "unit": "μm"}, {"measurement": "Dx (90)/μm", "setting": "[3]; listed as B-3", "value": 54.9, "unit": "μm"}, {"measurement": ">100 μm (%)", "setting": "[3]; listed as B-3", "value": 0.0, "unit": "%"}, {"measurement": "<2 μm (%)", "setting": "[3]; listed as B-3", "value": 2.6, "unit": "%"}, {"measurement": "Mo2S6O2 dimer (area %)", "setting": "[4]; Day 1, 40° C. / 75% RH, listed as B-3", "value": "<0.05", "unit": "area %"}, {"measurement": "Mo2S6O2 dimer (area %)", "setting": "[4]; Day 2, 40° C. / 75% RH, listed as B-3", "value": 0.07, "unit": "area %"}, {"measurement": "Mo2S6O2 dimer (area %)", "setting": "[4]; [6]", "value": 0.11, "unit": "area %"}, {"measurement": "TM2 (area %)", "setting": "[4]; [6]", "value": 0.10, "unit": "area %"}, {"measurement": "TM3 (area %)", "setting": "[4]; [6]", "value": 0.43, "unit": "area %"}, {"measurement": "Total impurities (area %)", "setting": "[4]; [6]", "value": 0.68, "unit": "area %"}, {"measurement": "TM2 (area %)", "setting": "[4]; Initial, listed as B-3", "value": 0.01, "unit": "area %"}, {"measurement": "TM3 (area %)", "setting": "[4]; Initial, listed as B-3", "value": 0.42, "unit": "area %"}, {"measurement": "Total impurities (area %)", "setting": "[4]; Initial, listed as B-3", "value": 0.44, "unit": "area %"}]}
{"substance": "bis-choline tetrathiomolybdate [Batch B-4]", "values": [{"measurement": "Estimated Crystallinity (%)", "setting": "[1]; AREAcryst/AREAtotal*100, listed as B-4", "value": 93, "unit": "%"}, {"measurement": "SSA (m^2/g)", "setting": "[2]; listed as B-4", "value": 1.16, "unit": "m^2/g"}, {"measurement": "Dx (10)/μm", "setting": "[3]; listed as B-4", "value": 3.6, "unit": "μm"}, {"measurement": "Dx (50)/μm", "setting": "[3]; listed as B-4", "value": 12.7, "unit": "μm"}, {"measurement": "Dx (90)/μm", "setting": "[3]; listed as B-4", "value": 47.6, "unit": "μm"}, {"measurement": ">100 μm (%)", "setting": "[3]; listed as B-4", "value": 0.0, "unit": "%"}, {"measurement": "<2 μm (%)", "setting": "[3]; listed as B-4", "value": 6.6, "unit": "%"}, {"measurement": "Mo2S6O2 dimer (area %)", "setting": "[4]; Day 1, 40° C. / 75% RH, listed as B-4", "value": 0.06, "unit": "area %"}, {"measurement": "Mo2S6O2 dimer (area %)", "setting": "[4]; Day 2, 40° C. / 75% RH, listed as B-4", "value": 0.23, "unit": "area %"}, {"measurement": "Mo2S6O2 dimer (area %)", "setting": "[4]; [7]", "value": 0.38, "unit": "area %"}, {"measurement": "TM2 (area %)", "setting": "[4]; [7]", "value": 0.19, "unit": "area %"}, {"measurement": "TM3 (area %)", "setting": "[4]; [7]", "value": 0.23, "unit": "area %"}, {"measurement": "Total impurities (area %)", "setting": "[4]; [7]", "value": 1.01, "unit": "area %"}, {"measurement": "Mo2S6O2 dimer (area %)", "setting": "[4]; Initial", "value": "<0.05", "unit": "area %"}, {"measurement": "TM2 (area %)", "setting": "[4]; Initial, listed as B-4", "value": 0.01, "unit": "area %"}, {"measurement": "TM3 (area %)", "setting": "[4]; Initial, listed as B-4", "value": 0.14, "unit": "area %"}, {"measurement": "Total impurities (area %)", "setting": "[4]; Initial, listed as B-4", "value": 0.20, "unit": "area %"}]}
